Marks after values point to notes of the source that are not given here. One block for each compound: values may come before it.
Assays:
OCT2 (SLC22A2) [1] = target: T1, OCT2 (SLC22A2) (Homo sapiens, UniProt O15244); assay: Cellular uptake into OCT2-overexpressing HEK293 cells vs EV control cells (HPLC-MS/MS); settings: for K m (±SEM) / v max (±SEM): OCT2, net uptake, Michaelis–Menten; for higher v max of one enantiomer over the other, OCT2: label = enantiomer with higher v max; for uptake ratio OCT2 (transporter-overexpressing cells over EV control cells): mean (±SD, N): 2.5 μM substrate (§), 2 min, HEK293
T1 sequence (O15244 1-555): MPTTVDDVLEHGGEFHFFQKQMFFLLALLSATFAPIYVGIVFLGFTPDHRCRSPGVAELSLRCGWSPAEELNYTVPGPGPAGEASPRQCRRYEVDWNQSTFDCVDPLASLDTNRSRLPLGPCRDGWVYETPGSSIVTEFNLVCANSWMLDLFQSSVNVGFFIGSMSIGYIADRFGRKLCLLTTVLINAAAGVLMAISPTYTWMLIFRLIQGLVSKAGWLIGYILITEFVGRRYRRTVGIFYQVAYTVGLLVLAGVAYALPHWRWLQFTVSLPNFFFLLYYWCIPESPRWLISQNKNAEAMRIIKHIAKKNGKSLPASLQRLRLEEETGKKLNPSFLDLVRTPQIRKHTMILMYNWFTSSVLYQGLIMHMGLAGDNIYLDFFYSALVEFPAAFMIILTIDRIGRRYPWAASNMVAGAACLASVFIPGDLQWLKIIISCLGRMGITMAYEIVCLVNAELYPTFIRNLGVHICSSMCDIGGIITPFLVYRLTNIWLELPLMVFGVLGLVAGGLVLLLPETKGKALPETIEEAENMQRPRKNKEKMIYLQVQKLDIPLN

MATE1 (SLC47A1) [2] = target: T2, MATE1 (SLC47A1) (Homo sapiens, UniProt Q96FL8); assay: in vitro; settings: pH 7.4
T2 sequence (Q96FL8 1-570): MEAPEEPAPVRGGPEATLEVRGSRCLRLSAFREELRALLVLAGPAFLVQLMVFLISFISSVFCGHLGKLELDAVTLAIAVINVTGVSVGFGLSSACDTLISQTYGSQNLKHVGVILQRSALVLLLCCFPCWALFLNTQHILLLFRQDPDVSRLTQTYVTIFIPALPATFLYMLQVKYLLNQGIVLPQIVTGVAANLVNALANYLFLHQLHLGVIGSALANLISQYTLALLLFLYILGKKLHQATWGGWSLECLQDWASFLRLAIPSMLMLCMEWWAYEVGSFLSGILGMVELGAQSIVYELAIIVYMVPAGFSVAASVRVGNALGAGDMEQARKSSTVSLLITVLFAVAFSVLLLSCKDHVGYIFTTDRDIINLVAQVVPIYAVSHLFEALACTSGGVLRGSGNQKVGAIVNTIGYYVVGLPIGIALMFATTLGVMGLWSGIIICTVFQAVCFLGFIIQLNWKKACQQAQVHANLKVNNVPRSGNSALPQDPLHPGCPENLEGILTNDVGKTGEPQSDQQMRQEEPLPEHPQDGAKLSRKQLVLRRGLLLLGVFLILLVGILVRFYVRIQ

OCT1 (SLC22A1) [3] = target: T3, OCT1 (SLC22A1) (Homo sapiens, UniProt O15245); assay: in vitro; settings: pH 7.4
T3 sequence (O15245 1-554): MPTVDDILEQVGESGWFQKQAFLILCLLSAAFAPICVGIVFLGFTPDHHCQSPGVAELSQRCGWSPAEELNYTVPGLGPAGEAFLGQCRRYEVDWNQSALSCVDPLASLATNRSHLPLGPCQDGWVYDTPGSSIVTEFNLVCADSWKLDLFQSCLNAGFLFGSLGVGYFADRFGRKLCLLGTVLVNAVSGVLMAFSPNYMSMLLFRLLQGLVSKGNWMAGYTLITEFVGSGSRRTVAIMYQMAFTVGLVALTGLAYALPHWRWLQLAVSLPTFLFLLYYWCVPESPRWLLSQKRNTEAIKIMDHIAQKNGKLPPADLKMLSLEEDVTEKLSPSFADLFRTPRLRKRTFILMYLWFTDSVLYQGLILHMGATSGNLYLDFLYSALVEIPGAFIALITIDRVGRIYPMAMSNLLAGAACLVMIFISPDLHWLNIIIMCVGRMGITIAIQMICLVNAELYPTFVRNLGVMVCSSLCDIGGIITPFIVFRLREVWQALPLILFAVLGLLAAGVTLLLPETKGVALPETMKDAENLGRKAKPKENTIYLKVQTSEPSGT

OCTs 1–3 = tested on: OCTs 1–3; set-up: method as in Sala-Rabanal et al. (2013); settings: rodent orthologues, ref Sala-Rabanal et al. (2013), cited from earlier work
MATE2-K (SLC47A2) [4] = target: T4, MATE2-K (SLC47A2) (Homo sapiens, UniProt Q86VL8); assay: Cellular uptake into MATE2-K-overexpressing HEK293 cells vs EV control cells (HPLC-MS/MS); settings: for uptake ratio MATE2K (transporter-overexpressing cells over EV control cells): mean (±SD, N): 2.5 μM substrate, 1 min, 30 mM NH4Cl preincubation, HEK293
T4 sequence (Q86VL8 1-566 isoform Q86VL8-3): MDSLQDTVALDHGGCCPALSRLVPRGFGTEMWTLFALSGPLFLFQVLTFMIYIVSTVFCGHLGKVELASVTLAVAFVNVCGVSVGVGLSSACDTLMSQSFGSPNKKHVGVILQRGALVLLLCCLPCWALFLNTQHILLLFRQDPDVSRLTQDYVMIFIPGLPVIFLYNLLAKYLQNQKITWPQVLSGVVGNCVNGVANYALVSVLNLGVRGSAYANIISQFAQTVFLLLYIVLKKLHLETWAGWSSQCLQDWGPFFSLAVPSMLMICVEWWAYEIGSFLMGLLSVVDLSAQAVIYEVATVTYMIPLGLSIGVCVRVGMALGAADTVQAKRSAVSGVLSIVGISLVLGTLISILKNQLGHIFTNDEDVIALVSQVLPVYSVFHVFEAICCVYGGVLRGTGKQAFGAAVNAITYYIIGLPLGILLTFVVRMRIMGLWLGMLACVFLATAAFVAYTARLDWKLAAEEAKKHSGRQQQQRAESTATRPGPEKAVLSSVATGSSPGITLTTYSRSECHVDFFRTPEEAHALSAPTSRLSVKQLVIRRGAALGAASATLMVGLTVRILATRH

OCT3 (SLC22A3) = target: T5, OCT3 (SLC22A3) (Homo sapiens, UniProt O75751); assay: Cellular uptake into OCT3-overexpressing HEK293 cells vs EV control cells (HPLC-MS/MS); settings: for stereoselectivity OCT3 (uptake ratio of the more strongly transported enantiomer divided by that of the other): label = favoured enantiomer; for uptake ratio OCT3 (transporter-overexpressing cells over EV control cells): mean (±SD, N): 2.5 μM substrate (§), 2 min, HEK293
T5 sequence (O75751 1-556): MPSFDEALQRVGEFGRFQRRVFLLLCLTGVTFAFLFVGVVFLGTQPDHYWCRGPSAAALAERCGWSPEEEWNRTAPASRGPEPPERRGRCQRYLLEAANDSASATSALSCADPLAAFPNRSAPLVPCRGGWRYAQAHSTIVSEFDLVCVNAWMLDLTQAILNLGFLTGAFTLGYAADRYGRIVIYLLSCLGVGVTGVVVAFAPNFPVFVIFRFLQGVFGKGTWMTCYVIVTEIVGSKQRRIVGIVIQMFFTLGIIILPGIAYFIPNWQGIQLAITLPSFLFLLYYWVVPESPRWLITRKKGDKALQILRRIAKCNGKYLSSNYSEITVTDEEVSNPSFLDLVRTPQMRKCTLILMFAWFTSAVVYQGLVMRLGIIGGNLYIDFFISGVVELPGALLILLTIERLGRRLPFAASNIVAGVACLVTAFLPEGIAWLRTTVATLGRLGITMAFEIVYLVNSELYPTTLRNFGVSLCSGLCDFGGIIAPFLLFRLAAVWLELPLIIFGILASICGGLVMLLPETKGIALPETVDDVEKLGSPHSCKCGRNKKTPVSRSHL

OCT2 = target: T6, OCT2 (Homo sapiens, UniProt O15244); set-up: method as in Higashi et al. (2014); settings: ref Higashi et al. (2014); cited from earlier work
T6 sequence (O15244 1-555): T1 sequence (O15244 1-555)

MATE1 (SLC47A1) [5] = target: T2, MATE1 (SLC47A1); assay: Cellular uptake into MATE1-overexpressing HEK293 cells vs EV control cells (HPLC-MS/MS); settings: for uptake ratio MATE1 (transporter-overexpressing cells over EV control cells): mean (±SD, N): 2.5 μM substrate, 1 min, 30 mM NH4Cl preincubation, HEK293
OCT1 (SLC22A1) [6] = target: T3, OCT1 (SLC22A1); assay: Cellular uptake into OCT1-overexpressing HEK293 cells vs EV control cells (HPLC-MS/MS); settings: for uptake ratio OCT1 (transporter-overexpressing cells over EV control cells): mean (±SD, N): 2.5 μM substrate (§), 2 min, HEK293
MATE2-K (SLC47A2) [7] = target: T4, MATE2-K (SLC47A2); assay: in vitro; settings: pH 7.4
OCT2 (SLC22A2) [8] = target: T1, OCT2 (SLC22A2); assay: in vitro; settings: pH 7.4
[9] = uptake ratio ≥2 = notable transport
[10] = listed as (S)-(+)-2-amino-1-Pentanol

Compound: CC(C)[C@@H](N)CO [D-valinol]
K m (±SEM) (OCT2 (SLC22A2) [1]): 329 (±190) μM
v max (±SEM) (OCT2 (SLC22A2) [1]): 2488 (±573) pmol/mg protein/min
selectivity ratio at 1 min (MATE1 (SLC47A1) [2]): 1.4
selectivity ratio at 2 min (OCT1 (SLC22A1) [3]): 1.3

Compound: CC(C)C[C@@H](N)CO [(R)-(−)-leucinol]
selectivity ratio at 1 min (MATE1 (SLC47A1) [2]): 1.1
stereoselectivity OCT3 (uptake ratio of the more strongly transported enantiomer divided by that of the other) (OCT3 (SLC22A3)): 1.4-fold for (R)

Compound: CCC[C@H](N)CO [(S)-(+)-2-amino-1-pentanol]
uptake ratio OCT2 (transporter-overexpressing cells over EV control cells): mean (±SD, N) (OCT2 (SLC22A2) [1]): 6.0 (1.7, 4) ^b
uptake ratio OCT2 (transporter-overexpressing cells over EV control cells): mean (±SD, N) (OCT2 (SLC22A2) [1]; [10]): 6.0
K m (±SEM) (OCT2 (SLC22A2) [1]): 245 (±83) μM
v max (±SEM) (OCT2 (SLC22A2) [1]): 2342 (±290) ^a pmol/mg protein/min
K m (±SEM) (OCT2 (SLC22A2) [1]; listed as (S)-2-amino-1-pentanol): 245 µM
higher v max of one enantiomer over the other, OCT2 (OCT2 (SLC22A2) [1]): 1.6 fold
uptake ratio MATE2K (transporter-overexpressing cells over EV control cells): mean (±SD, N) (MATE2-K (SLC47A2) [4]): 1.5 (0.4, 4)
uptake ratio MATE2K (transporter-overexpressing cells over EV control cells): mean (±SD, N) (MATE2-K (SLC47A2) [4]; [10]): 1.5
selectivity ratio at 2 min (OCT2 (SLC22A2) [8]): 1.2
uptake ratio OCT3 (transporter-overexpressing cells over EV control cells): mean (±SD, N) (OCT3 (SLC22A3)): 1.1 (0.2, 4)
uptake ratio OCT3 (transporter-overexpressing cells over EV control cells): mean (±SD, N) (OCT3 (SLC22A3); [10]): 1.1
stereoselectivity OCT3 (uptake ratio of the more strongly transported enantiomer divided by that of the other) (OCT3 (SLC22A3)): 1.1-fold for (S)
uptake ratio MATE1 (transporter-overexpressing cells over EV control cells): mean (±SD, N) (MATE1 (SLC47A1) [5]): 1.1 (0.1, 4)
uptake ratio MATE1 (transporter-overexpressing cells over EV control cells): mean (±SD, N) (MATE1 (SLC47A1) [5]; [10]): 1.1
uptake ratio OCT1 (transporter-overexpressing cells over EV control cells): mean (±SD, N) (OCT1 (SLC22A1) [6]): 1.0 (0.3, 4)
uptake ratio OCT1 (transporter-overexpressing cells over EV control cells): mean (±SD, N) (OCT1 (SLC22A1) [6]; [10]): 1.0

The next lines start with results.

substrate activity at OCT2 (in words) (OCT2 (SLC22A2) [1]; [9]): did not show any substrate activity
substrate activity at MATE2-K (in words) (MATE2-K (SLC47A2) [4]; [9]): did not show any substrate activity
substrate activity at OCT3 (in words) (OCT3 (SLC22A3); [9]): did not show any substrate activity
substrate activity at MATE1 (in words) (MATE1 (SLC47A1) [5]; [9]): did not show any substrate activity
substrate activity at OCT1 (in words) (OCT1 (SLC22A1) [6]; [9]): did not show any substrate activity
Compound: NCCCCNCCCN [spermidine]
K m of spermidine transport (OCTs 1–3; OCT-expressing oocytes): 1000 µM
increase in spermidine uptake by OCT-expressing oocytes compared to non-injected oocytes (OCTs 1–3): up to 3 fold
K m of spermidine transport (OCT2): 6760 µM

K m (±SEM) (OCT2 (SLC22A2) [1]): 362(±156) μM
v max (±SEM) (OCT2 (SLC22A2) [1]): 4970 (±967) pmol/mg protein/min
higher v max of one enantiomer over the other, OCT2 (OCT2 (SLC22A2) [1]): 2.0 fold
stereoselectivity OCT3 (uptake ratio of the more strongly transported enantiomer divided by that of the other) (OCT3 (SLC22A3)): 1.04-fold for (S)
Compound: CC(C)[C@H](N)CO [L-valinol]
selectivity ratio at 1 min (MATE2-K (SLC47A2) [7]): 1.5
selectivity ratio at 2 min (OCT2 (SLC22A2) [8]): 1.04
